Source: patent US11911719B2, “Devices and methods for the integrated filtration, drying, and mechanical processing of active pharmaceutical ingredients” (Massachusetts Institute of Technology, priority 2019, dated 2024)
Where a name gives a salt, the structure may show the parent alone.

Legend:
[1] = Powder compressibility (FT4 Powder Rheometer); type: physicochemical
Description: (§1) The bulk density was measured using the conditioned bulk density test, performed before any other test in the FT4. Powder flow property was measured using the shear cell test. The compressibility of the powders under investigation was also measured. Bulk density is an important parameter for determining the amount of powder that can fit in space such as blender, hopper of a tablet press or a tablet die. The shear test yields various powder flow measurements including a flow coefficient. The flow function coefficient (FFC) is used as an indicator of the flowability of a powder and is defined as the ratio of the major principle stress to the unconfined yield strength. The FFC was obtained using a normal stress of 3 kPa. FFC values can be separated into different regimes: FFC<1, not flowing; 1<FFC<2, very cohesive; 2<FFC<4, cohesive; 4<FFC<10, easy flowing, and FFC>10, free-flowing. Powder compressibility was also measured. Compressibility is not a direct measurement of flowability; however a free-flowing powder usually has a low compressibility value. A compressibility value greater than 30% indicates poor powder flow.

[2] = Particle size by laser diffraction (Mastersizer 2000, Scirocco 2000 dry dispersion); type: physicochemical
Description: (§2) Particle size analysis by laser diffraction was conducted in a Malvern Mastersizer 2000 using a Scirocco 2000 dry dispersion unit.
Characterization and understanding of the particle and bulk properties of the API, the excipients, and blends were important in the development and manufacturing of pharmaceutical formulations and finished products. Size, shape, bulk density and flow properties of CIPRO, excipients (specifically fillers), and blends were characterized to assist in formulation development. The particle size of CIPRO and excipients were measured in the Scirocco 2000, dry powder dispersion unit of Mastersizer 2000 particle size analyzer (Malvern Instruments Ltd.). CIPRO or excipient was placed in the enclosed vibratory tray of Scirocco 2000. The Scirocco 2000 uses compressed air to transport and suspend the particles of the sample while they pass through the air cell. The vibratory tray of Scirocco 2000 was vibrated to feed the powder at the 50% feed rate setting. The powder was dispersed through the air cell at an air pressure of 2 bar. The Mastersizer 2000 reported volume-weighted particle sizes. The median size of fumed silica CAB-O-SIL® M-5P is about 14 nm.

[3] = Karl Fischer analysis of lattice water; type: physicochemical; settings: KF analysis of oven dried samples
Description: as §2
Furthermore, no significant loss of crystallinity can be observed from the baseline. The lattice water content can be quantified from KF analysis of the off-line oven dried samples collected at different times during the process. […] As expected, the cake contains approximately 19 wt % water at the start of the drying process, coming from the residual wash solvent that contains 20 vol % water (24 wt %), but diluted by the solid API. […] This value is in accordance with the observations from XRPD analysis, with the monohydrate salt of ciprofloxacin HCl having a 4.7 wt % stoichiometric water content. As the drying step progresses, the total water concentration in the cake decreases while the lattice water is maintained constant. With the USP specifications giving a target water content between 4.7 and 6.7 wt %, the obtained drug substance started meeting the specifications after 50 min of drying. This time coincides with the point at which the cake dry matter content was near 100%.

[4] = after 140 min of drying, 50° C., 0.5 bar
[5] = Shear cell test, flow function coefficient (FT4 Powder Rheometer); type: physicochemical
Description: as §1

[6] = processed CIPRO particles, Table 3
[7] = processed CIPRO particles, Table 3, Hydrochloride Monohydrate
[8] = Table 2 materials, volume-weighted, dry dispersion 2 bar

Molecule | Compressibility [1, 7] [%] | Particle size d10 [2, 7] [μm] | Particle size d50 [2, 7] [μm] | Particle size d90 [2, 7] [μm] | other results
O=C(O)c1cn(C2CC2)c2cc(N3CCNCC3)c(F)cc2c1=O [CIPRO (Commercial, un-processed), Ciprofloxacin Hydrochloride Monohydrate] | – | – | – | – | Compressibility [1, 6]: 38.9%; Particle size d10 [2, 6]: 3.75 μm; Particle size d50 [2, 6]: 12.49 μm; Particle size d90 [2, 6]: 439.56 μm
Cl.O.O=C(O)c1cn(C2CC2)c2cc(N3CCNCC3)c(F)cc2c1=O [CIPRO (US & Krups Grinder), Ciprofloxacin Hydrochloride Monohydrate] | 38.8 | 1.93 | 7.09 | 65.36 | –
Cl.O.O=C(O)c1cn(C2CC2)c2cc(N3CCNCC3)c(F)cc2c1=O [CIPRO (US & Morter-Pastle), Ciprofloxacin Hydrochloride Monohydrate] | 43.6 | 3.01 | 8.67 | 24.02 | –
Cl.O.O=C(O)c1cn(C2CC2)c2cc(N3CCNCC3)c(F)cc2c1=O [CIPRO (w/o US, Grinder designed at MIT), Ciprofloxacin Hydrochloride Monohydrate] | – | 2.82 | 14.45 | 169.73 | –
Cl.O.O=C(O)c1cn(C2CC2)c2cc(N3CCNCC3)c(F)cc2c1=O [CIPRO (w/o US, Krups Grinder), Ciprofloxacin Hydrochloride Monohydrate] | 52.6 | 1.23 | 3.88 | 33.26 | Compressibility ([1]; processed CIPRO particles, Table 3, listed as CIPRO (w/o use of a Krups Grinder), Hydrochloride Monohydrate): 52.6%
O=C(O)c1cn(C2CC2)c2cc(N3CCNCC3)c(F)cc2c1=O [Ciprofloxacin HCl (CIPRO), Ciprofloxacin Hydrochloride Monohydrate] | – | – | – | – | Lattice water content of the crystalline phase [3]: 6.2 wt %; Crystal structure after drying (XRPD) [4]: retained the original crystal structure
Magnesium stearate | – | – | – | – | Compressibility ([1]; Table 2 materials): 38.97%; FFC (Flow function coefficient) ([5]; Table 2 materials, normal stress of 3 kPa): 5.18; Flowability by Schulze classification ([5]; based on FFC): flows easily; Particle size d10 [2, 8]: 2.76 μm; Particle size d50 [2, 8]: 6.86 μm; Particle size d90 [2, 8]: 15.10 μm
